Assay in all cases: MIC, in vitro Diagnostic Sensitivity Test, agar-dilution technique
Format in all cases: cell-based

In one assay the test system is E. coli TEM. As to conditions: Escherichia coli, read-out: minimum inhibitory concentration (MIC). An excerpt:
(§1) The following results were obtained for representative compounds on a standard in vitro test system using Diagnostic Sensitivity Test. The antibacterial activity is described in terms of the minimum inhibitory concentration (MIC) determined by the agar-dilution technique with an inocukum size of 10^4 CFU/spot.

The next assay has as its system Enterbacter cloacae 108. The settings on record: inoculum 10^4 CFU/spot, read-out: minimum inhibitory concentration (MIC).
Description: as §1

The test system of a further assay is Enterobacter cloacae 029. As to conditions: inoculum 10^4 CFU/spot, read-out: minimum inhibitory concentration (MIC).
Description: as §1

In a further assay the test system is S. aureus 147N. The settings on record: Staphylococcus aureus, inoculum 10^4 CFU/spot, read-out: minimum inhibitory concentration (MIC).
Description: as §1

Values after ≈ are worked out from the molar mass of the structure shown.

As for `CC(O)C1C(=O)N2C(C(=O)O)=C(SC3CNC(C(=O)Nc4csc(C(=O)O)c4)C3)SC12` [Example 1, (5R,6S,8R,2'S,4'S)-2-(2-(2-carboxy-4-thienylcarbamoyl)pyrrolidin-4-ylthio)-6-(1-hydroxyethyl)pen-2-em-3-carboxlic acid], the MIC was 0.008 mg/L (≈ 0.0165 µM) with E. coli TEM, 0.5 mg/L (≈ 1.03 µM) in the assay on Enterbacter cloacae 108, 0.015 mg/L (≈ 0.0309 µM) in the assay with Enterobacter cloacae 029 and 0.125 mg/L (≈ 0.257 µM) with S. aureus 147N.

In the case of `CO/N=C(\C(=O)N[C@@H]1C(=O)N2C(C(=O)O)=C(CSc3nc(=O)c(=O)[nH]n3C)CS[C@H]12)c1csc(N)n1` [ceftriaxone], the MIC in the assay on E. coli TEM turned out to be 0.03 mg/L (≈ 0.0541 µM); in the assay with Enterbacter cloacae 108 it was 32 mg/L (≈ 57.7 µM); in the assay with Enterobacter cloacae 029, 0.06 mg/L (≈ 0.108 µM); with S. aureus 147N it was 2 mg/L (≈ 3.61 µM).

Source of the values: patent publication US5538962A, “Antibiotic penem compounds” (Zeneca Limited, priority 1992, dated 1996).
